According to the NIST ThermoML archive (doi:10.1021/acs.jced.6b00388):
Numbers after ± are expanded uncertainties.

Conditions: Liquid, Ebulliometric method (Recirculating still)

Structure (SMILES): CC=C(C)C#N [2-methyl-2-butenenitrile]
- vapor or sublimation pressure (367.43 K): 50 ± 1 kPa
- vapor or sublimation pressure (392.75 K): 100 ± 2 kPa

Structure (SMILES): C=CC1CC=CCC1 (stereo unspecified) [4-ethenylcyclohexene]
- vapor or sublimation pressure (377.75 K): 50 ± 1 kPa
- vapor or sublimation pressure (401.42 K): 100 ± 2 kPa

Structure (SMILES): CC=CCC#N [3-pentenenitrile]
- vapor or sublimation pressure (393.48 K): 50 ± 1 kPa
- vapor or sublimation pressure (418.25 K): 100 ± 2 kPa
